The record followed here is publication PMC9287381, “Structure-based rational design of an enhanced fluorogen-activating protein for fluorogens based on GFP chromophore” (Communications Biology, 2022).

Common to all, as to assay: spectrofluorometric titration of protein with chromophore
Assay [1] has as its target T1, pFAST.
T1 construct: gene pyp; multipoint directed-evolution variant of FAST (itself engineered PYP); E. coli BL21(DE3)
The format is binding, Halorhodospira halophila. As to conditions: 0.10 µM protein, 25 °C. The source says:
spectrofluorometric titration of protein with chromophore on pFAST

Assay [2] addresses T2, FAST (Fluorescence-Activating and absorption-Shifting Tag) (Halorhodospira halophila, UniProt P16113, C69G/Y94W/T95M/F96I/D97P/Y98T/Q99S/M100R/T101G).
T2 construct: gene pyp; engineered full-length PYP variant (~14 kDa); E. coli BL21(DE3)
T2 sequence (P16113 1-125 C69G/Y94W/T95M/F96I/D97P/Y98T/Q99S/M100R/T101G): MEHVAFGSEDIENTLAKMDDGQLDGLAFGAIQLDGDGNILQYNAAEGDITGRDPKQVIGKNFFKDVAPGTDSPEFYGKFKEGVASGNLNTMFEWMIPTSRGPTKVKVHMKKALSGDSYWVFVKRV
The format is binding. The note with it: 0.10 µM protein, 25 °C. The source says:
(§1) spectrofluorometric titration of protein with chromophore on FAST (Fluorescence-Activating and absorption-Shifting Tag)

In assay [3] the target is T3, FAST (Fluorescence-Activating and absorption-Shifting Tag) (Halorhodospira halophila, UniProt P16113, C69G/D97P/F96I/M100R/Q99S/R52Y/T101G/T95M/Y94W/Y98T).
T3 construct: gene pyp; engineered full-length PYP variant (~14 kDa); E. coli BL21(DE3)
T3 sequence (P16113 1-125 R52Y/C69G/Y94W/T95M/F96I/D97P/Y98T/Q99S/M100R/T101G): T2 sequence (P16113 1-125 C69G/Y94W/T95M/F96I/D97P/Y98T/Q99S/M100R/T101G) with R52Y
In kind it is binding.
Description: as §1

Assay [4] concerns the target T4, FAST (Fluorescence-Activating and absorption-Shifting Tag) (Halorhodospira halophila, UniProt P16113, R52L/C69G/Y94W/T95M/F96I/D97P/Y98T/Q99S/M100R/T101G).
T4 construct: gene pyp; engineered full-length PYP variant (~14 kDa); E. coli BL21(DE3)
T4 sequence (P16113 1-125 R52L/C69G/Y94W/T95M/F96I/D97P/Y98T/Q99S/M100R/T101G): T2 sequence (P16113 1-125 C69G/Y94W/T95M/F96I/D97P/Y98T/Q99S/M100R/T101G) with R52L
In kind it is binding. As to conditions: 0.10 µM protein, 25 °C.
Description: as §1

The target of assay [5] is T5, FAST (Fluorescence-Activating and absorption-Shifting Tag) (Halorhodospira halophila, UniProt P16113, R52Y/C69G/Y94W/T95M/F96I/D97P/Y98T/Q99S/M100R/T101G).
T5 construct: gene pyp; engineered full-length PYP variant (~14 kDa); E. coli BL21(DE3)
T5 sequence (P16113 1-125 R52Y/C69G/Y94W/T95M/F96I/D97P/Y98T/Q99S/M100R/T101G): T2 sequence (P16113 1-125 C69G/Y94W/T95M/F96I/D97P/Y98T/Q99S/M100R/T101G) with R52Y
In kind it is binding. The note with it: 0.10 µM protein, 25 °C.
Description: as §1

Assay [6] addresses T6, FAST (Fluorescence-Activating and absorption-Shifting Tag) (Halorhodospira halophila, UniProt P16113, R52E/D65R/C69G/Y94W/T95M/F96I/D97P/Y98T/Q99S/M100R/T101G).
T6 construct: gene pyp; engineered full-length PYP variant (~14 kDa); E. coli BL21(DE3)
T6 sequence (P16113 1-125 R52E/D65R/C69G/Y94W/T95M/F96I/D97P/Y98T/Q99S/M100R/T101G): T2 sequence (P16113 1-125 C69G/Y94W/T95M/F96I/D97P/Y98T/Q99S/M100R/T101G) with R52E, D65R
In kind it is binding. As to conditions: 0.10 µM protein, 25 °C. The source says: (§2) spectrofluorometric titration of protein with chromophore on FAST (Fluorescence-Activating and absorption-Shifting Tag) | studied their properties in complex with N871b fluorogen

Assay [7] concerns the target T7, FAST (Fluorescence-Activating and absorption-Shifting Tag) (Halorhodospira halophila, UniProt P16113, R52E/C69G/Y94W/T95M/F96I/D97P/Y98T/Q99S/M100R/T101G).
T7 construct: gene pyp; engineered full-length PYP variant (~14 kDa); E. coli BL21(DE3)
T7 sequence (P16113 1-125 R52E/C69G/Y94W/T95M/F96I/D97P/Y98T/Q99S/M100R/T101G): T2 sequence (P16113 1-125 C69G/Y94W/T95M/F96I/D97P/Y98T/Q99S/M100R/T101G) with R52E
The format is binding. The note with it: 0.10 µM protein, 25 °C.
Description: as §2

For assay [8], the target named is T8, FAST (Fluorescence-Activating and absorption-Shifting Tag) (Halorhodospira halophila, UniProt P16113, C69G/Y94W/T95M/F96I/D97P/Y98T/Q99K/M100R/T101G).
T8 construct: gene pyp; engineered full-length PYP variant (~14 kDa); E. coli BL21(DE3)
T8 sequence (P16113 1-125 C69G/Y94W/T95M/F96I/D97P/Y98T/Q99K/M100R/T101G): T2 sequence (P16113 1-125 C69G/Y94W/T95M/F96I/D97P/Y98T/Q99S/M100R/T101G) with S99K
The format is binding. As to conditions: 0.10 µM protein, 25 °C.

Assay [9] has as its target T9, FAST (Fluorescence-Activating and absorption-Shifting Tag) (Halorhodospira halophila, UniProt P16113, C69G/Y94W/T95M/F96I/D97P/Y98T/Q99E/M100R/T101G).
T9 construct: gene pyp; engineered full-length PYP variant (~14 kDa); E. coli BL21(DE3)
T9 sequence (P16113 1-125 C69G/Y94W/T95M/F96I/D97P/Y98T/Q99E/M100R/T101G): T2 sequence (P16113 1-125 C69G/Y94W/T95M/F96I/D97P/Y98T/Q99S/M100R/T101G) with S99E
In kind it is binding. As to conditions: 0.10 µM protein, 25 °C.

Assay [10] concerns the target T10, FAST (Fluorescence-Activating and absorption-Shifting Tag) (Halorhodospira halophila, UniProt P16113, C69G/Y94W/T95M/F96I/D97P/Y98T/Q99R/M100R/T101G).
T10 construct: gene pyp; engineered full-length PYP variant (~14 kDa); E. coli BL21(DE3)
T10 sequence (P16113 1-125 C69G/Y94W/T95M/F96I/D97P/Y98T/Q99R/M100R/T101G): T2 sequence (P16113 1-125 C69G/Y94W/T95M/F96I/D97P/Y98T/Q99S/M100R/T101G) with S99R
In kind it is binding. The note with it: 0.10 µM protein, 25 °C.

Assay [11] addresses T11, FAST (Fluorescence-Activating and absorption-Shifting Tag) (Halorhodospira halophila, UniProt P16113, D65K/C69G/Y94W/T95M/F96I/D97P/Y98T/Q99S/M100R/T101G).
T11 construct: gene pyp; engineered full-length PYP variant (~14 kDa); E. coli BL21(DE3)
T11 sequence (P16113 1-125 D65K/C69G/Y94W/T95M/F96I/D97P/Y98T/Q99S/M100R/T101G): T2 sequence (P16113 1-125 C69G/Y94W/T95M/F96I/D97P/Y98T/Q99S/M100R/T101G) with D65K
The format is binding. As to conditions: 0.10 µM protein, 25 °C. The source says:
(§3) spectrofluorometric titration of protein with chromophore on FAST (Fluorescence-Activating and absorption-Shifting Tag) | all the S99 mutants, P73S, P68K, D65K

In assay [12] the target is T12, FAST (Fluorescence-Activating and absorption-Shifting Tag) (Halorhodospira halophila, UniProt P16113, C69G/P73S/Y94W/T95M/F96I/D97P/Y98T/Q99S/M100R/T101G).
T12 construct: gene pyp; engineered full-length PYP variant (~14 kDa); E. coli BL21(DE3)
T12 sequence (P16113 1-125 C69G/P73S/Y94W/T95M/F96I/D97P/Y98T/Q99S/M100R/T101G): T2 sequence (P16113 1-125 C69G/Y94W/T95M/F96I/D97P/Y98T/Q99S/M100R/T101G) with P73S
The format is binding. As to conditions: 0.10 µM protein, 25 °C.
Description: as §3

In assay [13] the target is T13, FAST (Fluorescence-Activating and absorption-Shifting Tag) (Halorhodospira halophila, UniProt P16113, P68K/C69G/Y94W/T95M/F96I/D97P/Y98T/Q99S/M100R/T101G).
T13 construct: gene pyp; engineered full-length PYP variant (~14 kDa); E. coli BL21(DE3)
T13 sequence (P16113 1-125 P68K/C69G/Y94W/T95M/F96I/D97P/Y98T/Q99S/M100R/T101G): T2 sequence (P16113 1-125 C69G/Y94W/T95M/F96I/D97P/Y98T/Q99S/M100R/T101G) with P68K
The format is binding. The note with it: 0.10 µM protein, 25 °C.
Description: as §3

Residue numbers refer to the chain shown, from its start.

A word on the Kd: it is a measure of binding affinity in units of concentration. On to `COc1cc(O)ccc1/C=C1N=C(/C=C/c2cccs2)N(C)C\1=O` [MCL.1b], for which the Kd is 0.023 ± 0.003 µM in assay [1], 0.2 ± 0.04 µM in [2], 0.27 ± 0.06 µM in assay [3] and 0.44 ± 0.2 µM in assay [4].
The like results for `COc1cc(O)ccc1/C=C1N=C(/C=C/c2ccccn2)N(C)C\1=O` [MCL.1f] were, in that order, 0.029 ± 0.005 µM, 0.27 ± 0.04 µM, 0.31 ± 0.05 µM and 0.39 ± 0.1 µM.
For the molecule `COc1cc(O)ccc1/C=C1\N=C2C=C(/C=C/c3ccncc3)C=CN2C1=O` [MCL.3a], the Kd worked out at 0.025 ± 0.002 µM in [1], 0.08 ± 0.01 µM in [2], 0.11 ± 0.02 µM in [5] and 0.06 ± 0.01 µM in assay [4].
On to `COc1cc(O)ccc1/C=C1N=C(/C=C/c2ccncc2)N(C)C\1=O` [N871b], for which the Kd came to 0.04 ± 0.002 µM in [1]; 1360 ± 220 nM in assay [6]; 1300 ± 70 nM in [7]; 270 ± 10 nM in assay [8]; 0.33 ± 0.01 µM in assay [2]; 0.24 ± 0.02 µM in assay [3]. Moreover, the Kd came out at 0.27 ± 0.01 µM in assay [4]; 210 ± 10 nM in assay [9]; 240 ± 10 nM in [10]; 250 ± 10 nM in assay [11]; 170 ± 10 nM in assay [12]; 220 ± 10 nM in assay [13].
